# Several values for one entry are separate records, joined by “and”; a condition that tells them apart may be missing. Equal entries are not always repeated.
# Organism: Rattus norvegicus
# Assay: DrugMatrix - Regimen: Daily Repeat
# Format: toxicity, organism-based, Sprague-Dawley
# Set-up: regimen Daily Repeat, gender Male, age 6-8 weeks
# Settings: in vivo, ip, route intraperitoneal, vehicle 100 % SALINE; for ABSOLUTE BASOPHIL / ABSOLUTE EOSINOPHIL / ABSOLUTE LYMPHOCYTE / ABSOLUTE MONOCYTE / ABSOLUTE SEGMENTED NEUTROPHIL / BASOPHIL / EOSINOPHIL / ERYTHROCYTE COUNT / HEMATOCRIT / HEMOGLOBIN / LEUKOCYTE COUNT / LYMPHOCYTE / MEAN CORPUSCULAR HEMOGLOBIN / MEAN CORPUSCULAR HEMOGLOBIN CONCENTRATION / MEAN CORPUSCULAR VOLUME / MONOCYTE / NEUTROPHIL / PLATELET COUNT: tissue Blood
# [1] = 0 mg/kg, 120 h, dose level Control, time 5 day
# [2] = 0 mg/kg, 120 h, tissue Plasma, dose level Control, time 5 day
# [3] = 0 mg/kg, […], dose level Control, time 14 day
# [4] = 0 mg/kg, […], dose level Control, time 28 day
# [5] = 0 mg/kg, […], tissue Plasma, dose level Control, time 14 day
# [6] = 0 mg/kg, […], tissue Plasma, dose level Control, time 28 day
# [7] = 2 mg/kg, 120 h, dose level High, time 5 day
substance,measurement,setting,value
LEAD (II) ACETATE,ABSOLUTE BASOPHIL,[1],32 cells/µL
same,ABSOLUTE EOSINOPHIL,[1],110 cells/µL
same,ABSOLUTE LYMPHOCYTE,[1],6630 cells/µL
same,ABSOLUTE MONOCYTE,[1],140 cells/µL
same,ABSOLUTE SEGMENTED NEUTROPHIL,[1],1170 cells/µL
same,BASOPHIL,[1],0.38% and 0.35%
same,EOSINOPHIL,[1],1.28% and 0.62%
same,ERYTHROCYTE COUNT,[1],7.45 x10E6/uL and 7.26 x10E6/uL
same,HEMATOCRIT,[1],45.74% and 47.97%
same,HEMOGLOBIN,[1],14.72 G/DL and 15.38 G/DL
same,LEUKOCYTE COUNT,[1],8.11 x10E3/uL and 8.68 x10E3/uL
same,LYMPHOCYTE,[1],81.3% and 86.77%
same,MEAN CORPUSCULAR HEMOGLOBIN,[1],19.76 pg and 21.18 pg
same,MEAN CORPUSCULAR HEMOGLOBIN CONCENTRATION,[1],32.16 G/DL and 32.05 G/DL
same,MEAN CORPUSCULAR VOLUME,[1],61.38 fL and 66.15 fL
same,MONOCYTE,[1],1.76% and 1.57%
same,NEUTROPHIL,[1],14.9% and 9.53%
same,PLATELET COUNT,[1],1322.4 x10E3/uL and 1786 x10E3/uL
same,ALANINE AMINOTRANSFERASE,[2],25.8 u/L and 20.5 u/L
same,ALBUMIN,[2],3.64 G/DL and 4.35 G/DL
same,ALKALINE PHOSPHATASE,[2],300 u/L
same,ASPARTATE AMINOTRANSFERASE,[2],81.4 u/L and 86.75 u/L
same,BLOOD UREA NITROGEN,[2],14.4 mg/dL and 17 mg/dL
same,CARBON DIOXIDE,[2],29 mmol/L
same,CHOLESTEROL,[2],69.2 mg/dL and 51.25 mg/dL
same,CREATINE PHOSPHOKINASE,[2],303.2 u/L and 384.75 u/L
same,CREATININE,[2],0.56 mg/dL and 0.47 mg/dL
same,GLUCOSE,[2],125.4 mg/dL and 128.75 mg/dL
same,LACTATE DEHYDROGENASE,[2],105.4 u/L and 145 u/L
same,LIPASE,[2],22.4 u/L and 13.25 u/L
same,PHOSPHORUS,[2],11.8 mg/dL
same,POTASSIUM,[2],5.52 MEQ/L and 6.58 MEQ/L
same,SODIUM,[2],147 MEQ/L and 151 MEQ/L
same,TOTAL BILIRUBIN,[2],0.2 mg/dL and 0.33 mg/dL
same,TOTAL PROTEIN,[2],6.1 G/DL and 6.53 G/DL
same,URIC ACID,[2],1.06 mg/dL and 1.95 mg/dL
same,ABSOLUTE BASOPHIL,[3],130 cells/µL
same,ABSOLUTE EOSINOPHIL,[3],140 cells/µL
same,ABSOLUTE LYMPHOCYTE,[3],13500 cells/µL
same,ABSOLUTE MONOCYTE,[3],400 cells/µL
same,ABSOLUTE SEGMENTED NEUTROPHIL,[3],2330 cells/µL
same,HEMATOCRIT,[3],45.98%
same,HEMOGLOBIN,[3],15.17 G/DL
same,MEAN CORPUSCULAR VOLUME,[3],59.4 fL
same,NEUTROPHIL,[3],14.14%
same,ABSOLUTE BASOPHIL,[4],91 cells/µL
same,ABSOLUTE EOSINOPHIL,[4],110 cells/µL
same,ABSOLUTE LYMPHOCYTE,[4],9910 cells/µL
same,ABSOLUTE MONOCYTE,[4],210 cells/µL
same,ABSOLUTE SEGMENTED NEUTROPHIL,[4],1560 cells/µL
same,BASOPHIL,[4],0.77%
same,EOSINOPHIL,[4],0.92%
same,ERYTHROCYTE COUNT,[4],8.21 x10E6/uL
same,HEMATOCRIT,[4],47.53%
same,HEMOGLOBIN,[4],15.65 G/DL
same,LEUKOCYTE COUNT,[4],11.91 x10E3/uL
same,LYMPHOCYTE,[4],83.34%
same,MEAN CORPUSCULAR HEMOGLOBIN,[4],19.07 pg
same,MEAN CORPUSCULAR HEMOGLOBIN CONCENTRATION,[4],32.93 G/DL
same,MEAN CORPUSCULAR VOLUME,[4],57.9 fL
same,MONOCYTE,[4],1.68%
same,NEUTROPHIL,[4],12.97%
same,PLATELET COUNT,[4],1323.8 x10E3/uL
same,ALBUMIN,[5],3.66 G/DL
same,CARBON DIOXIDE,[5],25 mmol/L
same,CHLORIDE,[5],107 MEQ/L
same,CREATINE PHOSPHOKINASE,[5],410.25 u/L
same,SODIUM,[5],149.2 MEQ/L
same,URIC ACID,[5],0.94 mg/dL
same,ALANINE AMINOTRANSFERASE,[6],30 u/L
same,ALBUMIN,[6],3.71 G/DL
same,ALKALINE PHOSPHATASE,[6],186.8 u/L
same,ASPARTATE AMINOTRANSFERASE,[6],78.2 u/L
same,BLOOD UREA NITROGEN,[6],14.2 mg/dL
same,CHOLESTEROL,[6],44.9 mg/dL
same,CREATINE PHOSPHOKINASE,[6],334.3 u/L
same,CREATININE,[6],0.6 mg/dL
same,GLUCOSE,[6],147.2 mg/dL
same,LACTATE DEHYDROGENASE,[6],123.1 u/L
same,LIPASE,[6],9.6 u/L
same,PHOSPHORUS,[6],10.01 mg/dL
same,POTASSIUM,[6],6.57 MEQ/L
same,SODIUM,[6],149.5 MEQ/L
same,TOTAL BILIRUBIN,[6],0.21 mg/dL
same,TOTAL PROTEIN,[6],6.66 G/DL
same,URIC ACID,[6],1.26 mg/dL
same,ABSOLUTE BASOPHIL,[7],120 cells/µL
same,ABSOLUTE EOSINOPHIL,[7],150 cells/µL
same,ABSOLUTE LYMPHOCYTE,[7],10100 cells/µL
same,ABSOLUTE MONOCYTE,[7],250 cells/µL
same,ABSOLUTE SEGMENTED NEUTROPHIL,[7],2470 cells/µL

# — ChEMBL document CHEMBL3885881, “DrugMatrix”
